Results from patent publication US20060235012A1, “Carboline and betacarboline derivatives for use as hdac enzyme inhibitors” (Chroma Therapeutics Limited, priority 2003, published 2006).

Molecular target: histone deacetylase activity (HeLa nuclear extract)
Assay: HDAC fluorescent activity assay (Biomol Fluor de Lys), HeLa nuclear extract
Type: biochemical
Settings: HeLa nuclear extract as HDAC source; Fluor de Lys substrate; IC50 range; read-out: Inhibitor Activity versus HDAC
Protocol: The ability of compounds of Examples 1 to 17 to inhibit histone deacetylase activities was measured using the commercially available HDAC fluorescent activity assay from Biomol. In brief, the Fluor de Lys™ substrate, a lysine with an epsilon-amino acetylation, is incubated with the source of histone deacetylase activity (HeLa nuclear extract) in the presence or absence of inhibitor. Deacetylation of the substrate sensitises the substrate to Fluor de Lys™ developer, which generates a fluorophore. Thus, incubation of the substrate with a source of HDAC activity results in an increase in signal that is diminished in the presence of an HDAC inhibitor.
Data are expressed as a percentage of the control, measured in the absence of inhibitor, with background signal being subtracted from all samples, as follows:— % activity=((S^i−B)/(S^o−B))×100 where S^i is the signal in the presence of substrate, enzyme and inhibitor, S^o is the signal in the presence of substrate, enzyme and the vehicle in which the inhibitor is dissolved, and B is the background signal measured in the absence of enzyme.
IC50 values were determined by non-linear regression analysis, after fitting the results of eight data points to the equation for sigmoidal dose response with variable slope (% activity against log concentration of compound), using Graphpad Prism software.
Histone deacetylase activity from crude nuclear extract derived from HeLa cells was used for screening. The preparation, purchased from 4C (Seneffe, Belgium), was prepared from HeLa cells harvested whilst in exponential growth phase. The nuclear extract is prepared according to Dignam J D 1983 Nucl. Acid. Res. 11, 1475-1489, snap frozen in liquid nitrogen and stored at −80° C. The final buffer composition was 20 mM Hepes, 100 mM KCl, 0.2 mM EDTA, 0.5 mM DTT, 0.2 mM PMSF and 20% (v/v) glycerol.

Compound	IC50
COc1ccc2[nH]c3c(c2c1)CCN(C(=O)CCCCCCC(=O)NO)C3 [Example 3]	< 330 nM
COC(=O)[C@H]1Cc2c([nH]c3ccccc23)CN1C(=O)CCCCCCC(=O)NO [Example 4]	< 330 nM
COc1ccc2[nH]c3c(c2c1)CCN(C(=O)CCCCCC(=O)NO)C3 [Example 6]	< 330 nM
COc1ccc2[nH]c3c(c2c1)CCN(C(=O)CCCCCCCC(=O)NO)C3 [Example 7]	< 330 nM
COC(=O)[C@H]1Cc2c([nH]c3ccccc23)CN1C(=O)CCCCCC(=O)NO [Example 11]	330 to 1000 nM
COC(=O)[C@H]1Cc2c([nH]c3ccccc23)CN1C(=O)CCCCCCCC(=O)NO [Example 12]	330 to 1000 nM
O=C(CCCCCC(=O)N1Cc2[nH]c3ccccc3c2C[C@@H]1C(=O)O)NO [Example 15]	330 to 1000 nM
O=C(CCCCCCC(=O)N1Cc2[nH]c3ccccc3c2C[C@@H]1C(=O)O)NO [Example 16]	< 330 nM
O=C(CCCCCCCC(=O)N1Cc2[nH]c3ccccc3c2C[C@@H]1C(=O)O)NO [Example 17]	330 to 1000 nM

More lines, now with the values ahead:

IC50	Compound
< 330 nM	O=C(CCCCCC(=O)N1CCc2c([nH]c3ccccc23)C1)NO [Example 2]
< 330 nM	O=C(CCCCCCCC(=O)N1CCc2c([nH]c3ccccc23)C1)NO [Example 5]
330 to 1000 nM	O=C(CCCCCC(=O)N1CCc2c([nH]c3ccccc23)C1C(F)(F)F)NO (stereo not shown) [Example 8]
< 330 nM	O=C(CCCCCCC(=O)N1CCc2c([nH]c3ccccc23)C1C(F)(F)F)NO (stereo not shown) [Example 9]
< 330 nM	O=C(CCCCCCCC(=O)N1CCc2c([nH]c3ccccc23)C1C(F)(F)F)NO (stereo not shown) [Example 10]
330 to 1000 nM	O=C(CCCCCC(=O)N1CCc2c([nH]c3ccccc23)C12CCCCC2)NO [Example 13]
< 330 nM	O=C(CCCCCCC(=O)N1CCc2c([nH]c3ccccc23)C12CCCCC2)NO [Example 14]
